The numbers were not newly measured in patent US20220226500A1, “FULLERENIC ELLAGIC LUTEOLIN AND METHODS” (Sinapu LLC, priority 2021, published 2022), which cites them from elsewhere.

The conditions of data set [1]: human body.
The conditions of data set [2]: in water.

As for `O=c1oc2c(O)c(O)cc3c(=O)oc4c(O)c(O)cc1c4c23` [ellagic acid], the “time in which more than half of the absorbed blood plasma level is broken down” value in data set [1] is reported as “within one hour”. The solubility in data set [2] is listed as 0.0097 grams per liter of water.
